Results on 11 compounds are retold here after PubChem BioAssay (NCI).

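These data come from cells grown in 96-well plates and exposed to compound for 48 hours at five concentrations. GI50 marks 50% less growth. TGI denotes the concentration required for complete inhibition of growth.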 Bounds are passed on as bounds.

What all share (experiment): inhibition of tumour cell growth, NCI panel, 48 h
For experiment [1], the system named is HCC-2998 colon.
In experiment [2] the test system is HOP-62 NSCLC.
The subject of experiment [3] is HT29 colon.
The subject of experiment [4] is MCF7 breast.
In experiment [5] the test system is NCI-H23 lung.
For experiment [6], the system named is RPMI-8226 leukemia.
Experiment [7] has as its system SK-OV-3 ovarian.
In experiment [8] the test system is SW-620 colon.
For experiment [9], the system named is SF-268 CNS.
The test system of experiment [10] is HOP-92 NSCLC.

On to `O=C(COc1ccc(/C=C2\Oc3ccccc3C2=O)cc1)Nc1nc2ccccc2s1`, for which the GI50 in [1] is 33.1 µM; in experiment [2] it was over 69.4 µM; in [3], 23.6 µM; in experiment [4] it was 35.6 µM; in experiment [5] it was 18.8 µM; in experiment [6] it was 2.79 µM. The GI50 was 61.7 µM in experiment [7] and 24.2 µM in [8]. The TGI in experiment [1] is over 100 µM; in experiment [2], over 100 µM; in experiment [3] it was over 100 µM; in experiment [4], over 100 µM; in experiment [5], over 100 µM; in experiment [6], 15.7 µM. Also, the TGI in experiment [7] and in experiment [8] was over 100 µM throughout.

In the case of `[O]=[V]([OH])([OH])[OH]`, the GI50 in experiment [1], in [2], in [3], in [4], in [5] and in experiment [9] was over 100 µM in each case. The GI50 in experiment [7] and in experiment [8] was over 100 µM each time. The TGI in experiment [1], in experiment [2], in experiment [3], in [4], in [5] and in experiment [9] was over 100 µM throughout. The TGI in experiment [7] and in [8] was over 100 µM in each case.

For `O=C(c1cccs1)c1c(C(F)(F)F)n([O-])c2cc(Cl)c(Cl)cc2[n+]1=O`, the GI50 in [1] was 1.5 µM; in [2], 1.77 µM; in experiment [10] it was 1.41 µM; in [3] it was 0.405 µM; in [4], 0.0762 µM; in experiment [5], 0.919 µM. Moreover, the GI50 in [9] was 1.03 µM; in experiment [7], 2.18 µM; in experiment [8] it was 0.0876 µM. The TGI in experiment [1] is 2.86 µM; in [2], 3.46 µM; in [10], 2.85 µM; in [3], over 100 µM; in experiment [4], 1.17 µM; in experiment [5] it was 2.37 µM. Further, the figures for the TGI in experiment [9], in experiment [7] and in experiment [8] were 2.45 µM, 4.04 µM and 0.865 µM, respectively.

On to `COc1ccc2c(C(=O)O)cc3ccccc3c2c1OC`, for which the TGI is 46.8 µM in experiment [1]; over 100 µM in [2]; 44.3 µM in experiment [10]; 48.9 µM in [3]; 48 µM in [5]; over 100 µM in experiment [6]. Moreover, the figures for the TGI in experiment [9], in experiment [7] and in experiment [8] were 41.4 µM, over 100 µM and 36.4 µM, respectively.

Regarding `COc1ccc(/C=C2\C(=O)N(NC(C)=O)c3ccccc32)cc1`, the TGI in [1], in experiment [2], in [10], in experiment [3], in experiment [5] and in experiment [6] was over 100 µM each time. For the same compound, the TGI in experiment [9], in experiment [7] and in experiment [8] was over 100 µM in each case.

On to `COCCN(CCOC)c1nc(-c2ccccc2)nc2ccccc12`, for which the GI50 in [2] was 22.4 µM; in experiment [4], 20.6 µM; in experiment [5], 26.6 µM; in experiment [6] it was 7.03 µM; in experiment [9] it was 19.7 µM; in experiment [7], 31.9 µM. The GI50 in [8] is 33.9 µM. Also, the TGI was 64.3 µM in experiment [2]; 55.7 µM in experiment [4]; 54.7 µM in experiment [5]; 36 µM in experiment [6]; 62.4 µM in [9]; over 100 µM in experiment [7]. The TGI in [8] was over 100 µM.

Consider `Cc1ccc(NC(=O)c2cc(S(=O)(=O)Nc3nnc(-c4ccccc4)c(-c4ccccc4)n3)c(SCc3ccccc3)cc2Cl)cc1`, for which the GI50 in [2] is 36.1 µM; in experiment [10] it was 18.8 µM; in experiment [4], 24.4 µM; in experiment [5], 18.1 µM; in experiment [6], 11.8 µM; in experiment [9] it was 20.2 µM. Also, the GI50 is 22 µM in experiment [7] and 25.1 µM in experiment [8]. Also, the TGI in experiment [2] was over 100 µM; in [10], 42.9 µM; in [4], over 100 µM; in experiment [5], 34.2 µM; in experiment [6], 44.8 µM; in experiment [9] it was 84.5 µM. Besides, the TGI in experiment [7] turned out to be 41.6 µM; in experiment [8] it was 55.4 µM.

Take `CC(=O)OCC(=O)[C@@]1(O)CC[C@H]2[C@@H]3C[C@H](C)C4=CC(=O)C=C[C@]4(C)[C@@]3(F)[C@@H](O)C[C@@]21C`: the TGI in [1], in experiment [2], in [10], in experiment [3], in experiment [5] and in [6] was over 100 µM in each case. Further, the TGI in experiment [9], in [7] and in [8] was over 100 µM each time.

Take `O=C1C2C3C=CC(C2C(=O)N1CO)C1C2C(=O)N(CO)C(=O)C2C31` (stereo unspecified): the TGI in [1] is over 100 µM; in experiment [2], over 100 µM; in experiment [10] it was over 100 µM; in experiment [3], over 100 µM; in experiment [5], over 100 µM; in experiment [6], 46.5 µM. Besides, the TGI in experiment [9] was over 79 µM; in [7] it was over 100 µM; in [8] it was over 66.7 µM.

On to `CC(=O)Oc1c(C(=O)[O-])cc(C(C)C)cc1C(C)C.CC(=O)Oc1c(C(=O)[O-])cc(C(C)C)cc1C(C)C.CC(=O)Oc1c(C(=O)[O-])cc(C(C)C)cc1C(C)C.CC(=O)Oc1c(C(=O)[O-])cc(C(C)C)cc1C(C)C.[Cu+2].[Cu+2]`, for which the GI50 in experiment [2] was 25 µM; in experiment [10], 45.5 µM; in experiment [3] it was 37.5 µM; in experiment [4], 21 µM; in [5], 20.1 µM; in experiment [9] it was 38.7 µM. The GI50 is 14.4 µM in experiment [7] and 42.1 µM in [8]. The TGI is 54.4 µM in experiment [2]; over 100 µM in experiment [10]; over 100 µM in experiment [3]; 65.2 µM in experiment [4]; 52.7 µM in experiment [5]; over 100 µM in [9]. Also, the TGI in experiment [7] was 35.4 µM; in experiment [8], over 100 µM.

Consider `Cc1ccc(S(=O)(=O)NCCCCC(N)C(=O)O)cc1` (stereo unspecified), for which the TGI in experiment [2], in [10], in [3], in experiment [4], in experiment [5] and in experiment [6] was over 100 µM throughout. Besides, the TGI in experiment [9], in experiment [7] and in experiment [8] was over 100 µM in each case.
